Measurements taken from US20260078120A1, “SUBSTITUTED PYRIDOPYRIMIDINONES” (MIRATI THERAPEUTICS, INC., priority 2022, published 2026).

Assays:
[1] = system: T47D (PI3Kα H1047R mutant) cells; assay: CellTiter-Glo 2.0 luminescent cell viability assay, 72 hours, T47D cells; type: cell-based; settings: Homo sapiens, T47D, 72 h, T47D (PI3Kα H1047R mutant) cells, CellTiter-Glo, approximately 72 hours; read-out: T47D (H1047R mutant) Viability IC50
Protocol: This Example illustrates that exemplary compounds of the present invention decrease the viability of cells.
(§1) The ability of a compound of Formula (I) to decrease the viability of cells was measured using CellTiter-Glo 2.0 (CTG) Luminescent Cell Viability Assay (#G9241) obtained from Promega (Madison, WI).
To prepare assay plates for viability assays, cells were trypsinized, resuspended in fresh media, and viable cells were counted utilizing trypan blue exclusion. T47D, SKBR3, or MKN1 cells were seeded at 1000 cells in 30 μl per well in a solid white flat bottom 384 cell culture plate (Perkin Elmer #6007680) and incubated at 37° C. overnight.
(§2) Assay day 1, cells were dosed using an Echo Liquid Handler (Beckman Coulter) with compounds at a 10 um starting concentration and serially diluted (1:4) for a total of 10 concentrations. Cells were incubated for approximately 72 hours with the compounds (solubilized in DMSO) at 37° C. After 72 hours of treatment, cell plates were equilibrated to room temperature before adding 15 μl of CTG to each well, plates were then covered in aluminum foil to protect from light, incubated at room temperature for 30 minutes on a microtiter plate shaker, and luminescence readings were collected using a CLARIOstar microplate reader (BMG Labtech, Germany). Percent of vehicle control values were plotted as log (inhibitor) vs. response-Variable slope (four parameters) for curve fitting and IC50 values were determined using XLfit.

[2] = system: SKBR3 (PI3Kα wild type) cells; assay: CellTiter-Glo 2.0 luminescent cell viability assay, 72 hours, SKBR3 cells; type: cell-based; settings: Homo sapiens, SK-BR-3, 72 h, SKBR3 (PI3Kα wild type) cells, CellTiter-Glo, approximately 72 hours; read-out: SKBR3 (WT) Viability IC50
Protocol: as §1
To prepare assay plates for viability assays, cells were trypsinized, resuspended in fresh media, and viable cells were counted utilizing trypan blue exclusion.
as §2

Row | IC50 [1] [nM] | IC50 [2] [nM] | SMILES
1 | 8350 | > 10000 | Cc1cc([C@@H](C)Nc2cccn(C)c2=O)c2nc(N3CCCCC3)c(C)c(=O)n2c1 [Example 11-278, (R)-3,7-dimethyl-9-(1-((1-methyl-2-oxo-1,2-dihydropyridin-3-yl)amino)ethyl)-2-(piperidin-1-yl)-4H-pyrido[1,2-a]pyrimidin-4-one]
2 | > 10000 | > 10000 | Cc1cc([C@@H](C)Nc2ccccc2C(=O)O)c2nc(N3CCn4c(nnc4C(F)(F)F)C3)c(C)c(=O)n2c1 [Example 11-217, (R)-2-((1-(3,7-dimethyl-4-oxo-2-(3-(trifluoromethyl)-5,6-dihydro-[1,2,4]triazolo[4,3-a]pyrazin-7(8H)-yl)-4H-pyrido[1,2-a]pyrimidin-9-yl)ethyl)amino)benzoic acid]
3 | 2740 | > 10000 | Cc1cc(C(C)Nc2ccccc2C(=O)O)c2nc(N3CCN(C(=O)C4CC4)CC3)cc(=O)n2c1 (stereo not shown) [Example 11-336, 2-((1-(2-(4-(cyclopropanecarbonyl)piperazin-1-yl)-7-methyl-4-oxo-4H-pyrido[1,2-a]pyrimidin-9-yl)ethyl)amino)benzoic acid]
4 | 531 | > 10000 | Cc1cc([C@@H](C)Nc2ccccc2C(=O)O)c2nc(N3CC(F)(F)C[C@H]3C)c(C)c(=O)n2c1 [Example 11-125, 2-(((R)-1-(2-((R)-4,4-difluoro-2-methylpyrrolidin-1-yl)-3,7-dimethyl-4-oxo-4H-pyrido[1,2-a]pyrimidin-9-yl)ethyl)amino)benzoic acid]
5 | 370 | > 10000 | Cc1cc([C@@H](C)Nc2ccccc2C(=O)O)c2nc(N3CCN(c4cn(C)nc4C#N)CC3)c(C#N)c(=O)n2c1 [Example 11-184, (R)-2-((1-(3-cyano-2-(4-(3-cyano-1-methyl-1H-pyrazol-4-yl)piperazin-1-yl)-7-methyl-4-oxo-4H-pyrido[1,2-a]pyrimidin-9-yl)ethyl)amino)benzoic acid]
6 | 328 | > 10000 | Cc1cc([C@@H](C)Nc2ccccc2C(=O)O)c2nc(N3CC(O)C4CCCCC43)c(C)c(=O)n2c1 (stereo partly drawn) [Example 11-31, 2-(((1R)-1-(2-(3-hydroxyoctahydro-1H-indol-1-yl)-3,7-dimethyl-4-oxo-4H-pyrido[1,2-a]pyrimidin-9-yl)ethyl)amino)benzoic acid]
7 | 1600 | > 10000 | Cc1cc([C@@H](C)Nc2ccccc2C(=O)O)c2nc(N3CC4CCCCCCC4C3)c(C)c(=O)n2c1 (stereo partly drawn) [Example 11-27, 2-(((1R)-1-(2-(decahydro-2H-cycloocta[c]pyrrol-2-yl)-3,7-dimethyl-4-oxo-4H-pyrido[1,2-a]pyrimidin-9-yl)ethyl)amino)benzoic acid]
8 | 114 | > 10000 | Cc1cc([C@@H](C)Nc2ccccc2C(=O)O)c2nc(N3CCC(F)(F)CC3)c(C)c(=O)n2c1 [Example 11-303, (R)-2-((1-(2-(4,4-difluoropiperidin-1-yl)-3,7-dimethyl-4-oxo-4H-pyrido [1,2-a]pyrimidin-9-yl)ethyl)amino)benzoic acid]
9 | > 10000 | > 10000 | Cc1cc(C(C)Nc2ccccc2C(=O)O)c2nc(C3CCNCC3)cc(=O)n2c1 (stereo not shown) [Example 11-380, 2-((1-(7-methyl-4-oxo-2-(piperidin-4-yl)-4H-pyrido[1,2-a]pyrimidin-9-yl)ethyl)amino)benzoic acid]
10 | 508 | > 10000 | Cc1cc([C@@H](C)Nc2ccccc2C(=O)O)c2nc(N3CCC(C)(C#N)CC3)c(C#N)c(=O)n2c1 [Example 11-68, (R)-2-((1-(3-cyano-2-(4-cyano-4-methylpiperidin-1-yl)-7-methyl-4-oxo-4H-pyrido[1,2-a]pyrimidin-9-yl)ethyl)amino)benzoic acid]
11 | 282 | > 10000 | Cc1cc([C@@H](C)Nc2ccccc2C(=O)O)c2nc(N3CCN(c4cccc(C#N)c4)CC3)c(C)c(=O)n2c1 [Example 11-226, (R)-2-((1-(2-(4-(3-cyanophenyl)piperazin-1-yl)-3,7-dimethyl-4-oxo-4H-pyrido[1,2-a]pyrimidin-9-yl)ethyl)amino)benzoic acid]
12 | 219 | > 10000 | Cc1cc([C@@H](C)Nc2ccccc2C(=O)O)c2nc(N3CCC4(CCO4)CC3)c(C#N)c(=O)n2c1 [Example 11-55, (R)-2-((1-(3-cyano-7-methyl-4-oxo-2-(1-oxa-7-azaspiro[3.5]nonan-7-yl)-4H-pyrido[1,2-a]pyrimidin-9-yl)ethyl)amino)benzoic acid]
13 | 69.5 | > 10000 | Cc1cc([C@@H](C)Nc2ccccc2C(=O)O)c2nc(N3Cc4ccc(CO)cc4C3)c(C)c(=O)n2c1 [Example 10-137, (R)-2-((1-(2-(5-(hydroxymethyl)isoindolin-2-yl)-3,7-dimethyl-4-oxo-4H-pyrido[1,2-a]pyrimidin-9-yl)ethyl)amino)benzoic acid]
14 | 116 | > 10000 | Cc1cc([C@@H](C)Nc2ccccc2C(=O)O)c2nc(C3CC3)c(C#N)c(=O)n2c1 [Example 11-244, (R)-2-((1-(3-cyano-2-cyclopropyl-7-methyl-4-oxo-4H-pyrido[1,2-a]pyrimidin-9-yl)ethyl)amino)benzoic acid]
15 | > 10000 | > 10000 | Cc1cc([C@@H](C)Nc2ccccc2C(=O)O)c2nc(N3CCn4c(nnc4C(F)(F)F)C3)c(C#N)c(=O)n2c1 [Example 11-216, (R)-2-((1-(3-cyano-7-methyl-4-oxo-2-(3-(trifluoromethyl)-5,6-dihydro-[1,2,4]triazolo[4,3-a]pyrazin-7(8H)-yl)-4H-pyrido[1,2-a]pyrimidin-9-yl)ethyl)amino)benzoic acid]
16 | 330 | > 10000 | Cc1cc([C@@H](C)Nc2ccccc2C(=O)O)c2nc(N3CCN(c4ccc(C(F)(F)F)cc4C#N)C[C@@H]3C)c(C)c(=O)n2c1 [Example 11-80, 2-(((R)-1-(2-((S)-4-(2-cyano-4-(trifluoromethyl)phenyl)-2-methylpiperazin-1-yl)-3,7-dimethyl-4-oxo-4H-pyrido[1,2-a]pyrimidin-9-yl)ethyl)amino)benzoic acid]
17 | 2420 | > 10000 | Cc1cc(C(C)Nc2ccccc2C(=O)O)c2nc(N3Cc4cccc(C#N)c4C3)cc(=O)n2c1 (stereo not shown) [Example 11-338, 2-((1-(2-(4-cyanoisoindolin-2-yl)-7-methyl-4-oxo-4H-pyrido[1,2-a]pyrimidin-9-yl)ethyl)amino)benzoic acid]
18 | 114 | > 10000 | COc1ccc(C2CCN(c3nc4c([C@@H](C)Nc5ccccc5C(=O)O)cc(C)cn4c(=O)c3C)CC2)cc1 [Example 11-39, (R)-2-((1-(2-(4-(4-methoxyphenyl)piperidin-1-yl)-3,7-dimethyl-4-oxo-4H-pyrido[1,2-a]pyrimidin-9-yl)ethyl)amino)benzoic acid]
19 | 332 | > 10000 | Cc1cc(C(C)Nc2ccccc2C(=O)O)c2nc(N3Cc4ccccc4C3)c(C#N)c(=O)n2c1 (stereo not shown) [Example 11-349, 2-((1-(3-cyano-2-(isoindolin-2-yl)-7-methyl-4-oxo-4H-pyrido[1,2-a]pyrimidin-9-yl)ethyl)amino)benzoic acid]
20 | 7170 | > 10000 | Cc1cc([C@@H](C)Nc2ccccc2C(=O)O)c2nc(N3CCN(S(C)(=O)=O)CC3)c(C#N)c(=O)n2c1 [Example 11-283, (R)-2-((1-(3-cyano-7-methyl-2-(4-(methylsulfonyl)piperazin-1-yl)-4-oxo-4H-pyrido[1,2-a]pyrimidin-9-yl)ethyl)amino)benzoic acid]
21 | 129 | > 10000 | Cc1cc([C@@H](C)Nc2ccccc2C(=O)O)c2nc(N3CC4(CCC4(F)F)C3)c(C#N)c(=O)n2c1 [Example 11-200, (R)-2-((1-(3-cyano-2-(5,5-difluoro-2-azaspiro[3.3]heptan-2-yl)-7-methyl-4-oxo-4H-pyrido[1,2-a]pyrimidin-9-yl)ethyl)amino)benzoic acid]
22 | > 10000 | > 10000 | C[C@H](Nc1ccccc1C(=O)O)c1cc(C(F)F)cn2c(=O)c(C#N)c(N3CCC(F)(F)CC3)nc12 [Example 11-169, (S)-2-((1-(3-cyano-7-(difluoromethyl)-2-(4,4-difluoropiperidin-1-yl)-4-oxo-4H-pyrido[1,2-a]pyrimidin-9-yl)ethyl)amino)benzoic acid]
23 | > 10000 |  | Cc1cc(C(C)Nc2ccccc2C(=O)O)c2nc(N3CCN(C)C(=O)C3)cc(=O)n2c1 (stereo not shown) [Example 11-384, 2-((1-(7-methyl-2-(4-methyl-3-oxopiperazin-1-yl)-4-oxo-4H-pyrido[1,2-a]pyrimidin-9-yl)ethyl)amino)benzoic acid]
24 | 856 |  | Cc1cc(C(C)Nc2cccc(F)c2C(=O)O)c2nc(N3Cc4ccccc4C3)c(C)c(=O)n2c1 (stereo not shown) [Example 11-368, 2-fluoro-6-((1-(2-(isoindolin-2-yl)-3,7-dimethyl-4-oxo-4H-pyrido[1,2-a]pyrimidin-9-yl)ethyl)amino)benzoic acid]
